Patent US20170253607A1, “LONG-ACTING HIV PROTEASE INHIBITOR” (Shionogi & Co., Ltd., priority 2014, published 2017)

How the values were obtained:
HIV-1 PR = HIV-1 PR (Human immunodeficiency virus type 1 group M subtype B, UniProt P04585); test: HIV-protease inhibitory activity assay (FRET peptide substrate); type: biochemical; details: Test Example 1
Method in brief: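 Inhibition of HIV-1 protease was measured as loss of fluorescence dequenching of a HiLyte Fluor 488/QXL 520 peptide at 2 μmol/L, pH 4.8, room temperature, 60 minute reaction. IC50 was derived by nonlinear four-parameter fitting.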

[1] = Evaluation of total body clearance (CLtot), intravenous administration; type: in vivo, Sprague-Dawley (SD); details: rat (SD), intravenous administration 0.5-10 mg/kg; CLtot = dose/AUC
Protocol: Dose: Intravenous administration with designated doses was selected. (Doses were changed depending on compounds.) • 0.5-10 mg/kg (n=2-3) Preparation of dosing formulation: The dosing solution was prepared by dissolving in an adequate solvent. Administration method: The dosing solution was injected into the tail vein by a syringe with a needle Blood sampling: The blood was collected at the scheduled time and obtained the plasma. Plasma concentrations of the compound were measured by LC/MS/MS. Statistical analysis: Area under the plasma concentration-time curve (AUC) of the compound was calculated by pharmacokinetic analysis software, WinNonlin™ and CLtot was calculated by dividing the dose by AUC.

Compound | IC50 (HIV-1 PR) [nM] | rat_CLt [1] [mL/min/kg]
COc1ccc(S(=O)(=O)N(CC(C)C)CC(O)C(Cc2ccc(N3CCC(Oc4cc(C(F)(F)F)ccc4-c4sc5c(c4C(=O)O)CC(C)(C)CC5)C3)cc2)NC(=O)OC2COC3(C)OCCC23)cc1 (stereo not shown) [Compound I-579] | 4.38 | 1.66
COc1ccc(S(=O)(=O)N(CC(C)C)CC(O)C(Cc2ccc(NCc3ccc(-c4ccccc4-c4sc5c(c4C(=O)O)CC(C)(C)CC5)cc3)cc2)NC(=O)OC2COC3(C)OCCC23)cc1 (stereo not shown) [Compound I-530] | 8.31 | 1.57
COc1ccc(S(=O)(=O)N(CC(C)C)CC(O)C(Cc2ccc(NCc3ccccc3-c3sc(N(C4CCCCC4)C4CCCCC4)nc3C(=O)O)cc2)NC(=O)OC2COC3(C)OCCC23)cc1 (stereo not shown) [Compound I-454] | 5.51 | 4.02
COc1ccc(S(=O)(=O)N(CC(C)C)CC(O)C(Cc2ccc(N(C)Cc3ccc(C)cc3-c3sc4c(c3C(=O)O)CC(C)(C)CC4)cc2)NC(=O)OC2COC3(C)OCCC23)cc1 (stereo not shown) [Compound I-488] | 2.2 | 0.501
COc1ccc(S(=O)(=O)N(CC(C)C)CC(O)C(Cc2ccc(N3CCC(Oc4cc(N(C)C)ccc4-c4sc5c(c4C(=O)O)CC(C)(C)CC5)C3)cc2)NC(=O)OC2COC3(C)OCCC23)cc1 (stereo not shown) [Compound I-606] | 2.25 | 2.2
COc1ccc(S(=O)(=O)N(CC(C)C)CC(O)C(Cc2ccc(NCc3ccc4nc(-c5sc6c(c5C(=O)O)CC(C)(C)CC6)sc4c3)cc2)NC(=O)OC2COC3(C)OCCC23)cc1 (stereo not shown) [Compound I-487] | 3.03 | 3.16
COc1ccc(S(=O)(=O)N(CC(C)C)CC(O)C(Cc2ccc(NCc3cc(-n4ccccc4=O)ccc3-c3sc4c(c3C(=O)O)CC(C)(C)CC4)cc2)NC(=O)OC2COC3(C)OCCC23)cc1 (stereo not shown) [Compound I-664] | 1.86 | 1.5
COc1ccc(S(=O)(=O)N(CC(C)C)CC(O)C(Cc2ccc(NCC3COCCC3c3sc4c(c3C(=O)O)CC(C)(C)CC4)cc2)NC(=O)OC2COC3(C)OCCC23)cc1 (stereo not shown) [Compound I-399] | 1.94 | 0.487
CC(C)CN(CC(O)C(Cc1ccc(NCc2ccccc2-c2sc3c(c2C(=O)O)CC(C)(C)CC3)cc1)NC(=O)OC1COC2(C)OCCC12)S(=O)(=O)c1ccc(OCF)cc1 (stereo not shown) [Compound I-507] | 1.85 | 1.61
COc1ccc(S(=O)(=O)N(CC(C)C)CC(O)C(Cc2ccc(NCc3ccc(C(F)(F)F)cc3-c3sc4c(c3C(=O)O)CC(C)(C)CC4)cc2)NC(=O)OC2COC3(C)OCCC23)cc1 (stereo not shown) [Compound I-526] | 6.47 | 0.632
COc1ccc(S(=O)(=O)N(CC(C)C)CC(O)C(Cc2ccc(N(C)Cc3cccc(C(F)(F)F)c3-c3sc4c(c3C(=O)O)CC(C)(C)CC4)cc2)NC(=O)OC2COC3(C)OCCC23)cc1 (stereo not shown) [Compound I-537] | 5.5 | 0.328
COc1ccc(S(=O)(=O)N(CC(C)C)CC(O)C(Cc2ccc(NCc3cc(C4=CCCCC4)ccc3-c3sc4c(c3C(=O)O)CC(C)(C)CC4)cc2)NC(=O)OC2COC3(C)OCCC23)cc1 (stereo not shown) [Compound I-727] | 3.38 | 0.0528
CC1(C)CCc2sc(-c3ccccc3CNc3ccc(CC(NC(=O)OC4COC5(C)OCCC45)C(O)CN(CC4CCCC4)S(=O)(=O)c4ccc5ncsc5c4)cc3)c(C(=O)O)c2C1 (stereo not shown) [Compound I-513] | 1.76 | 3.23
COc1ccc(S(=O)(=O)N(CC(C)C)CC(O)C(Cc2ccc(NCc3cc(N4CCCC4)ccc3-c3sc4c(c3C(=O)O)CC(C)(C)CC4)cc2)NC(=O)OC2COC3(C)OCCC23)cc1 (stereo not shown) [Compound I-480] | 2.36 | 0.0997
COc1ccc(S(=O)(=O)N(CC(C)C)CC(O)C(Cc2ccc(NCc3cnc4sccc4c3-c3sc4c(c3C(=O)O)CC(C)(C)CC4)cc2)NC(=O)OC2COC3(C)OCCC23)cc1 (stereo not shown) [Compound I-648] | 2.31 | 0.783
COc1ccc(S(=O)(=O)N(CC(C)C)CC(O)C(Cc2ccc(NCc3cc(-c4sc5c(c4C(=O)O)CC(C)(C)CC5)ccc3C)cc2)NC(=O)OC2COC3(C)OCCC23)cc1 (stereo not shown) [Compound I-550] | 1.75 | 5.29
COc1ccc(S(=O)(=O)N(CC(C)C)CC(O)C(Cc2ccc(N3CCC(Oc4ccccc4-c4sc5c(c4C(=O)O)CC(C)(C)CC5)CC3)cc2)NC(=O)OC2COC3(C)OCCC23)cc1 (stereo not shown) [Compound I-578] | 2.39 | 3.16
COc1ccc(S(=O)(=O)N(CC(C)C)CC(O)C(Cc2ccc(N3CC(Oc4ccccc4C(=O)Nc4sc5c(c4C(=O)O)CC(C)(C)CC5)C3)cc2)NC(=O)OC2COC3(C)OCCC23)cc1 (stereo not shown) [Compound I-575] | 8.32 | 0.267

Compound | IC50 (HIV-1 PR) [nM] | rat_CLt [1] [mL/min/kg]
COc1ccc(S(=O)(=O)N(CC2CCC2)CC(O)C(Cc2ccc(NCc3ccccc3-c3sc4c(c3C(=O)O)CC(C)(C)CC4)cc2)NC(=O)OC2COC3(C)OCCC23)cc1 (stereo not shown) [Compound I-474] | 2.14 | 1.28
COc1ccc(S(=O)(=O)N(CC(C)C)CC(O)C(Cc2ccc(N3CCC(Cc4ccccc4-c4sc5c(c4C(=O)O)CC(C)(C)CC5)CC3)cc2)NC(=O)OC2COC3(C)OCCC23)cc1 (stereo not shown) [Compound I-666] | 4.7 | 0.668
COc1ccc(S(=O)(=O)N(CC(C)C)CC(O)C(Cc2ccc(OCc3ccccc3NC(=O)c3sc4c(c3C(=O)O)CC(C)(C)CC4)cc2)NC(=O)OC2COC3(C)OCCC23)cc1 (stereo not shown) [Compound I-214] | 1.89 | 0.297
COc1ccc(S(=O)(=O)N(CC(C)C)CC(O)C(Cc2ccc(NCC3CCCC3c3sc4c(c3C(=O)O)CC(C)(C)CC4)cc2)NC(=O)OC2COC3(C)OCCC23)cc1 (stereo not shown) [Compound I-410] | 1.99 | 1.07
COc1ccc(S(=O)(=O)N(CC(C)C)CC(O)C(Cc2ccc(N3CCC(c4ccccc4-c4sc5c(c4C(=O)O)CC(C)(C)CC5)C3)cc2)NC(=O)OC2COC3(C)OCCC23)cc1 (stereo not shown) [Compound I-522] | 13.6 | 0.144
CC1(C)CCc2sc(NC(=O)c3ccccc3CNc3ccc(CC(NC(=O)OC4COC5OCCC45)C(O)CN(CC4CCC4)S(=O)(=O)c4ccc5ncsc5c4)cc3)c(C(=O)O)c2C1 (stereo not shown) [Compound I-862] | 2.61 | 0.14
COc1ccc(S(=O)(=O)N(CC(C)C)CC(O)C(Cc2ccc(NCc3c(-c4sc5c(c4C(=O)O)CC(C)(C)CC5)ccc4ccccc34)cc2)NC(=O)OC2COC3(C)OCCC23)cc1 (stereo not shown) [Compound I-531] | 6.98 | 0.0543
COc1ccc(S(=O)(=O)N(CC(C)C)CC(O)C(Cc2ccc(NCc3ccc(C(=O)NCc4ccc(F)cc4)cc3-c3sc4c(c3C(=O)O)CC(C)(C)CC4)cc2)NC(=O)OC2COC3(C)OCCC23)cc1 (stereo not shown) [Compound I-481] | 3.72 | 3.29
COc1ccc(S(=O)(=O)N(CC(C)C)CC(O)C(Cc2ccc(NCC3CCCCC3C(=O)Nc3sc4c(c3C(=O)O)CC(C)(C)CC4)cc2)NC(=O)OC2COC3(C)OCCC23)cc1 (stereo not shown) [Compound I-614] | 2.91 | 0.146
COc1ccc(S(=O)(=O)N(CC(C)C)C[C@@H](O)[C@H](Cc2ccc(N3CC[C@H](Oc4ccccc4-n4nc5c(c4C(=O)O)CC(C)(C)CC5)C3)cc2)NC(=O)O[C@H]2CO[C@@]3(C)OCC[C@@H]23)cc1 [Compound I-596] | 1.54 | 0.213
COc1ccc(S(=O)(=O)N(CC(C)C)CC(O)C(Cc2ccc(NCc3cc(N4CCN(C)CC4)ccc3-c3sc4c(c3C(=O)O)CC(C)(C)CC4)cc2)NC(=O)OC2COC3(C)OCCC23)cc1 (stereo not shown) [Compound I-680] | 2.1 | 2.77
COc1ccc(S(=O)(=O)N(CC(C)C)CC(O)C(Cc2ccc(NCc3ccccc3-c3sc4c(c3C(=O)O)CC(C)(C)CC4)cc2)NC(=O)OC2COC3(C)OCCC23O)cc1 (stereo not shown) [Compound I-890] | 1.74 | 0.652
COc1ccc(S(=O)(=O)N(CC2CCCC2)CC(O)C(Cc2ccc(NCc3ccccc3C(=O)Nc3sc4c(c3C(=O)O)CC(C)(C)CC4)cc2)NC(=O)OC2COC3OCCC23)cc1 (stereo not shown) [Compound I-857] | 3.41 | 0.132
COc1ccc(S(=O)(=O)N(CC(C)C)CC(O)C(Cc2ccc(N(C)Cc3cc(C(F)(F)F)ccc3-c3sc4c(c3C(=O)O)CC(C)(C)CC4)cc2)NC(=O)OC2COC3(C)OCCC23)cc1 (stereo not shown) [Compound I-451] | 9.46 | 0.211
COc1ccc(S(=O)(=O)N(CCC(C)C)CC(O)C(Cc2ccc(NCc3ccccc3-c3sc4c(c3C(=O)O)CC(C)(C)CC4)cc2)NC(=O)OC2COC3(C)OCCC23)cc1 (stereo not shown) [Compound I-475] | 2.42 | 2.28
COc1ccc(S(=O)(=O)N(CC(C)C)CC(O)C(Cc2ccc(NCc3cccc(C)c3-c3sc4c(c3C(=O)O)CC(C)(C)CC4)cc2)NC(=O)OC2COC3(C)OCCC23)cc1 (stereo not shown) [Compound I-598] | 2.12 | 0.532
COc1ccc(S(=O)(=O)N(CC(C)C)CC(O)C(Cc2ccc(N(C)Cc3cc(N4CCN(C)CC4)ccc3-c3sc4c(c3C(=O)O)CC(C)(C)CC4)cc2)NC(=O)OC2COC3(C)OCCC23)cc1 (stereo not shown) [Compound I-701] | 1.49 | 2.71
